In EP1009397B1, “USE OF N,N-BIS (PHENYLCARBAMOYLMETHYL) DIMETHYLAMMONIUM CHLORIDE AND DERIVATIVES IN THE TREATMENT OF CHRONIC PAIN” (UCB Farchim S.A., priority 1997, dated 1999):

Assays:
guinea pig = settings: intravenous administration; cited from earlier work
Acute toxicity in rats = settings: rat, in vivo, ip; intraperitoneal administration to rats; read-out: survival dose values (LD50)
rabbit = settings: intravenous administration; cited from earlier work
CD-I mouse = assay: Formalin Paw Test; assay type: in vivo, mice; settings: for ED50: subcutaneous
Description: In this test a hind paw (footpad) of conscious mice was injected with a formalin solution, which produced a painful stimulus, to which the mice reacted by licking the foot. Pretreatment of the animal with an effective analgesia reduced the pain and consequently the licking behavior. […] At t=0 minutes, either saline, […], 20, 40, 80 or 160 mg/kg was injected subcutaneously under the dorsal skin of the neck of a CD-I mouse (n=8 for each dose of Compound I) that weighed in the range of 20-45 grams. At t=60 minutes, formalin (2 different amounts were used in separate studies) was injected into the right hind paw (footpad) of each mouse, and the animal was released into the observation chamber (24-26°C). The mice were videotaped in groups of four for 60 minutes. The observations were made from viewing the videotapes activity, and the investigators looked for the following pain behavioral traits: licking of the right hind paw; lifting and licking of the right hind paw; resting/sleeping/being still; exploring or grooming (F.V. Abbott, K.B.J. Franklin and R.F. Wesbrook, Pain, 1995, 60 191-202). The corresponding behavioral traits were checked and recorded for each animal every two minutes for sixty minutes after the formalin injection.

human forearm = assay: Intradermal injections into the human forearm; assay type: in vivo; settings: intradermal injections of small volumes of solutions
[1] = Acute toxicity in rabbits; settings: rabbit, in vivo; intravenous administration to rabbits; read-out: survival dose values (LD50)
Description: The experiments were carried out on animals that were administered intravenously or orally escalating doses of the test compounds.

Acute toxicity in mice = settings: mouse, in vivo, read-out: survival dose values (LD50)
mouse tail = assay: Regional analgesic effects in mice (tourniquet at tail base, tail vein injection, tail-flick); assay type: in vivo; settings: injection into the tail vein, tourniquet around the base of the tail
From the text: In these experiments a tourniquet is placed around the base of a mouse tail so as to occlude blood flow to and from the tail.

CD-1 mice = assay: Formalin Tail Test; assay type: in vivo
Description: The protocol of this test is similar to that for the Paw Test described above, except that the injection of formalin was in the dorsal mid-tail region of the mouse instead of the hind paw. Behaviors such as licking of the tail (with and without lifting the tail), grooming, exploring and resting were recorded every two minutes for sixty minutes after injection of formalin (30 µl of 2.5% formalin)
Two modes of administration (subcutaneous and oral) of Compound I were studied. […] The ED50 was determined to be 40 mg/kg.
In the oral administration study, CD-1 mice weighing 15-30 grams each (n=8 or 4 for each dose of Compound I) were orally administered with either gum arabic (vehicle), 300 mg/kg or 700 mg/kg Compound I, 60 minutes prior to formalin (2.5%, 30 µ1)_injection. Behaviors such as licking of the tail (with and without lifting the tail), grooming, exploring and resting were recorded every two minutes for sixty minutes after injection of formalin (30 µl of 2.5% formalin). At an oral dose of 700mg/kg, Compound I reduced licking by 62%, while at 300 mg/kg, a reduction of 50% was determined

C[N+](C)(CC(=O)Nc1ccccc1)CC(=O)Nc1ccccc1.[Cl-] [Compound I, N, N-Bis (phenylcarbamoylmethyl) dimethylammonium chloride]
Toxicity (LD100) (guinea pig): 36 mg/kg
LD50 (Acute toxicity in rats): 150 mg/kg
Toxicity (LD100) (rabbit): 50 mg/kg
ED50 (CD-I mouse; Mus musculus, sc, 20 µl of 2.0% formalin injected): 50 mg/kg
ED50 (CD-I mouse; Mus musculus, sc, 30 µl of 2.5% formalin injected): 145 mg/kg
inhibition at 160 mg/kg (CD-I mouse; Mus musculus, sc, 20 µl of 2.0% formalin injected, at 160 mg/kg subcutaneous): > 80%
alteration of animal behavior (CD-I mouse; at the doses of the formalin paw test (up to 160 mg/kg subcutaneous)): no evident alteration of animal behavior other than the reduced reaction to the noxious stimulus
inhibition of the delayed phase of licking (CD-I mouse; subcutaneous under the dorsal skin of the neck, 60 minutes before formalin into right hind paw): dose related inhibition of the delayed phase of licking
effect on sensation of heat or touch (human forearm): little or no effect on sensation of heat or touch
inhibition of pain induced by pin-prick (human forearm): long-lasting inhibition of pain induced by pin-prick
LD50 [1]: 17 mg/kg
LD50 (Acute toxicity in mice; ip, intraperitoneal administration to mice): 125 mg/kg
LD50 (Acute toxicity in mice; sc, subcutaneous injection to mice): 264 mg/kg
LD50 (Acute toxicity in mice; oral administration to mice): 117 mg/kg
block of tail-flick in response to heat (mouse tail): not to heat
block of tail-flick in response to pin-prick (mouse tail): rapidly produced block of tail-flick in response to pin-prick
ED50 (CD-1 mice; Mus musculus, sc, subcutaneous administration, 30 µl of 2.5% formalin): 40 mg/kg
reduction of licking (CD-1 mice; oral 300 mg/kg, 60 minutes prior to formalin (2.5%, 30 µ1)): 50%
reduced licking (CD-1 mice; oral dose of 700mg/kg, 60 minutes prior to formalin (2.5%, 30 µ1)): 62%
inhibition of the delayed phase of licking (CD-1 mice; subcutaneous administration under the dorsal skin of the neck, 30 µl of 2.5% formalin in dorsal mid-tail region): dose related inhibition of the delayed phase of licking

CCN(CC)CC(=O)Nc1c(C)cccc1C [lidocaine, reference compound]
effect on sensation of heat or touch (human forearm): inhibited equally sensation of pain, heat and touch
inhibition of pain induced by pin-prick (human forearm): inhibited equally sensation of pain, heat and touch
block of tail-flick in response to heat (mouse tail): inhibits responses both to pin-prick and to heat
block of tail-flick in response to pin-prick (mouse tail): inhibits responses both to pin-prick and to heat

CCCCN1CCCCC1C(=O)Nc1c(C)cccc1C (centres unmarked) [bupivacaine]
effect on sensation of heat or touch (human forearm): inhibited equally sensation of pain, heat and touch
inhibition of pain induced by pin-prick (human forearm): inhibited equally sensation of pain, heat and touch
